ChEMBL document CHEMBL1208738, “Optimization of privileged structures for selective and potent melanocortin subtype-4 receptor ligands” (Bioorg Med Chem Lett, 2010)

Experiments:
Melanocortin receptor 4 [1] = target: T1, Melanocortin receptor 4 (Homo sapiens, UniProt P32245); experiment: Displacement of [125I]NDP-alpha-MSH from human MC4 receptor expressed in CHO cells; assay type: cell-based
Melanocortin receptor 3 [2] = target: T2, Melanocortin receptor 3 (Homo sapiens, UniProt P41968); experiment: Agonist activity at human MC3 receptor expressed in CHO cells assessed as increase of alpha-MSH-induced cAMP accumulation; assay type: functional, cell-based
T2 sequence (P41968 whole entry): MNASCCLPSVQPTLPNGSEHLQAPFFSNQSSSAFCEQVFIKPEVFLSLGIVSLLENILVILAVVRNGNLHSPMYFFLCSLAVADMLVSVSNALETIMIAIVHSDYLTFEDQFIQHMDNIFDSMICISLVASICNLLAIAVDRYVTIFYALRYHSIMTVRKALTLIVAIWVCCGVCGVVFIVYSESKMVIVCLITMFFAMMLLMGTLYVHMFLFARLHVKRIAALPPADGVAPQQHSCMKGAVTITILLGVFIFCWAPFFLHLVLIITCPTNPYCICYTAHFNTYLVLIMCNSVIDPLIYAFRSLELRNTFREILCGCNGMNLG

Melanocortin receptor 3 [3] = target: T2, Melanocortin receptor 3; experiment: Displacement of [125I]NDP-alpha-MSH from human MC3 receptor expressed in CHO cells; assay type: cell-based
[4] = Half life in Sprague-Dawley rat at 1 mg/kg, iv and 4 mg/kg, po; assay type: ADME, organism-based; conditions: in vivo
[5] = target: T3, Melanocyte-stimulating hormone receptor (Homo sapiens, UniProt Q01726); experiment: Displacement of [125I]NDP-alpha-MSH from human MC1 receptor expressed in CHO cells; assay type: cell-based
Target sequence in this assay (Q01726 whole entry): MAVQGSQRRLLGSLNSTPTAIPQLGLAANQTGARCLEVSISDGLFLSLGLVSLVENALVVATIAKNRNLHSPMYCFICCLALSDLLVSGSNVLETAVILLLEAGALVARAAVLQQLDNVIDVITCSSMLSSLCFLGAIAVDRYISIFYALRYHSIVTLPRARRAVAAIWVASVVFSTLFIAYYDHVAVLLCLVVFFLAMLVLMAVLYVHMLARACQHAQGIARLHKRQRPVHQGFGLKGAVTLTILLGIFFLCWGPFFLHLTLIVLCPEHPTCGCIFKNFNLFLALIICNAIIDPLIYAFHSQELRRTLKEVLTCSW

Melanocortin receptor 5 [6] = target: T4, Melanocortin receptor 5 (Homo sapiens, UniProt P33032); experiment: Displacement of [125I]NDP-alpha-MSH from human MC5 receptor expressed in CHO cells; assay type: cell-based
T4 sequence (P33032 whole entry): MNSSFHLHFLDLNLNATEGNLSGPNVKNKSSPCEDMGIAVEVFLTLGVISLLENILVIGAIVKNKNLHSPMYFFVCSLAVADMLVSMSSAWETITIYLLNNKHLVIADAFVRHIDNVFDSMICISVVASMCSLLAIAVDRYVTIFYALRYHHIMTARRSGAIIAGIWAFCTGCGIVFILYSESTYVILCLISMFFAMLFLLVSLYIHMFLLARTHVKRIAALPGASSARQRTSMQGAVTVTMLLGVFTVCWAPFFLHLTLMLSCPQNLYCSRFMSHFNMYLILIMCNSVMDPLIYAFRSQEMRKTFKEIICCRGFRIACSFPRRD

[7] = Volume of distribution at steady state in Sprague-Dawley rat at 1 mg/kg, iv and 4 mg/kg, po; assay type: ADME, organism-based; conditions: in vivo, read-out: Vdss
Melanocortin receptor 4 [8] = target: T1, Melanocortin receptor 4; experiment: Agonist activity at human MC4 receptor expressed in CHO cells assessed as increase of alpha-MSH-induced cAMP accumulation; assay type: functional, cell-based
Melanocortin receptor 5 [9] = target: T4, Melanocortin receptor 5; experiment: Agonist activity at human MC5 receptor expressed in CHO cells assessed as increase of alpha-MSH-induced cAMP accumulation; assay type: functional, cell-based
[10] = Oral bioavailability in Sprague-Dawley rat at 4 mg/kg; assay type: ADME, organism-based; conditions: in vivo
[11] = Clearance in Sprague-Dawley rat at 1 mg/kg, iv and 4 mg/kg, po; assay type: ADME, organism-based; conditions: in vivo
[12] = target: T3, Melanocyte-stimulating hormone receptor; experiment: Agonist activity at human MC1 receptor expressed in CHO cells assessed as increase of alpha-MSH-induced cAMP accumulation; assay type: functional, cell-based
Target sequence in this assay (Q01726 whole entry): as the sequence (Q01726 whole entry) above

Melanocortin receptor 4 [13] = target: T1, Melanocortin receptor 4; experiment: Agonist activity at human MC4 receptor expressed in CHO cells assessed as increase of alpha-MSH-induced cAMP accumulation at 10 uM relative to alpha-MSH; assay type: functional, cell-based
Homo sapiens [14] = species on record: Homo sapiens; experiment: Selectivity ratio of EC50 for human MC5 receptor to EC50 for human MC4 receptor
Homo sapiens [15] = species on record: Homo sapiens; experiment: Selectivity ratio of EC50 for human MC1 receptor to EC50 for human MC4 receptor
[16] = target: T3, Melanocyte-stimulating hormone receptor; experiment: Agonist activity at human MC1 receptor expressed in CHO cells assessed as increase of alpha-MSH-induced cAMP accumulation at 10 uM relative to alpha-MSH; assay type: functional, cell-based
Target sequence in this assay (Q01726 whole entry, looked up): as the sequence (Q01726 whole entry) above

Homo sapiens [17] = species on record: Homo sapiens; experiment: Selectivity ratio of IC50 for human MC5 receptor to IC50 for human MC4 receptor
Homo sapiens [18] = species on record: Homo sapiens; experiment: Selectivity ratio of IC50 for human MC1 receptor to IC50 for human MC4 receptor
Melanocortin receptor 3 [19] = target: T2, Melanocortin receptor 3; experiment: Agonist activity at human MC3 receptor expressed in CHO cells assessed as increase of alpha-MSH-induced cAMP accumulation at 10 uM relative to alpha-MSH; assay type: functional, cell-based
Melanocortin receptor 5 [20] = target: T4, Melanocortin receptor 5; experiment: Agonist activity at human MC5 receptor expressed in CHO cells assessed as increase of alpha-MSH-induced cAMP accumulation at 10 uM relative to alpha-MSH; assay type: functional, cell-based

T1 sequence (P32245 whole entry): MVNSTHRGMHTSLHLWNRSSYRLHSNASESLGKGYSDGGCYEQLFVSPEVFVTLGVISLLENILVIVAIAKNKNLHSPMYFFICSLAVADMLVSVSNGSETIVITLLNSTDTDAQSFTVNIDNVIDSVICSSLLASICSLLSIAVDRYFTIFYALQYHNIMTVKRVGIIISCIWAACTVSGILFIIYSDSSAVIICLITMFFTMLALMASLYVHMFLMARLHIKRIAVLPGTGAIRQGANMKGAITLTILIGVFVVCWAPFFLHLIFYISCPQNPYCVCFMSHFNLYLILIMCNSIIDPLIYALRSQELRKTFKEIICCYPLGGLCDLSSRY

CC(C)N(CC(C1CCCCC1)N1CCN(C(=O)[C@@H]2CN(C(C)(C)C)C[C@H]2c2ccc(F)cc2F)CC1)S(C)(=O)=O (single isomer, unassigned; diastereomer 2)
IC50 (Melanocortin receptor 4 [1]): 13 nM | EC50 (Melanocortin receptor 3 [2]): 1800 nM | IC50 (Melanocortin receptor 3 [3]): 3600 nM | half-life [4]: 2.7 h | IC50 [5]: 1000 nM | IC50 (Melanocortin receptor 5 [6]): 250 nM | Vd [7]: 6 L/kg | EC50 (Melanocortin receptor 4 [8]): 13 nM | EC50 (Melanocortin receptor 5 [9]): > 5000 nM | bioavailability [10]: 21% | clearance [11]: 25 mL/min/kg | EC50 [12]: 540 nM

CC(=O)N(CC(C1CCCCC1)N1CCN(C(=O)[C@@H]2CN(C(C)(C)C)C[C@H]2c2ccc(F)cc2F)CC1)C(C)C (stereo in doubt; 19B) [listing 1 of 2 here]
IC50 (Melanocortin receptor 4 [1]): 28 nM | EC50 (Melanocortin receptor 3 [2]): 2000 nM | IC50 (Melanocortin receptor 3 [3]): 6500 nM | half-life [4]: 2.2 h | IC50 [5]: 1800 nM | IC50 (Melanocortin receptor 5 [6]): 660 nM | Vd [7]: 6.8 L/kg | EC50 (Melanocortin receptor 4 [8]): 25 nM | EC50 (Melanocortin receptor 5 [9]): 2800 nM | bioavailability [10]: 12% | clearance [11]: 42 mL/min/kg | EC50 [12]: 890 nM

CCN(CC)CC(C1CCCCC1)N1CCN(C(=O)[C@@H]2CN(C(C)(C)C)C[C@H]2c2ccc(F)cc2F)CC1 (stereo partly drawn)
IC50 (Melanocortin receptor 4 [1]): 260 nM | Activity (Melanocortin receptor 4 [13]): 101% | half-life [4]: 34 h | Vd [7]: 19 L/kg | EC50 (Melanocortin receptor 4 [8]): 570 nM | bioavailability [10]: 22% | clearance [11]: 7.3 mL/min/kg

CC(C)N(CC(C1CCCCC1)N1CCN(C(=O)[C@@H]2CN(C(C)(C)C)C[C@H]2c2ccc(F)cc2F)CC1)C(=O)c1ncccn1 (single isomer, unassigned; diastereomer 1)
IC50 (Melanocortin receptor 4 [1]): 35 nM | half-life [4]: 1.8 h | Vd [7]: 3.8 L/kg | EC50 (Melanocortin receptor 4 [8]): 10 nM | bioavailability [10]: 26% | clearance [11]: 31 mL/min/kg

CC(C)N(CC(C1CCCCC1)N1CCN(C(=O)[C@@H]2CN(C(C)(C)C)C[C@H]2c2ccc(F)cc2F)CC1)C(=O)c1cnn(C(C)C)c1 (single isomer, unassigned; diastereomer 1)
Ratio EC50 (Homo sapiens [14]): 20 | Ratio EC50 (Homo sapiens [15]): 20 | Activity (Melanocortin receptor 4 [13]): 106% | Activity [16]: 60% | Ratio IC50 (Homo sapiens [17]): 20 | Ratio IC50 (Homo sapiens [18]): 20 | Activity (Melanocortin receptor 3 [19]): 102% | Activity (Melanocortin receptor 5 [20]): 62%

CC(=O)N(CC(C1CCCCC1)N1CCN(C(=O)[C@@H]2CN(C(C)(C)C)C[C@H]2c2ccc(F)cc2F)CC1)C(C)C (stereo in doubt; 19B) [listing 2 of 2 here]
Ratio EC50 (Homo sapiens [14]): 20 | Ratio EC50 (Homo sapiens [15]): 20 | Activity (Melanocortin receptor 4 [13]): 123% | Activity [16]: 61% | Ratio IC50 (Homo sapiens [17]): 20 | Ratio IC50 (Homo sapiens [18]): 20 | Activity (Melanocortin receptor 3 [19]): 81% | Activity (Melanocortin receptor 5 [20]): 64%
